From publication PMC12809495, “Potential 14-3-3 binding sites in sirtuins reveal extended phosphosite-recognition modes” (Acta Crystallographica Section F: Structural Biology …, 2026)
Where a SMILES comes first, the peptide text is derived from it. [ ]: non-standard residue; d: D form. pS = N[C@@H](COP(=O)(O)O)C(=O)O

Legend:
14-3-3 isoform gamma = target: T1, 14-3-3 isoform gamma (Homo sapiens, UniProt P61981); assay: Label-free microscale thermophoresis (MST) binding, 14-3-3 gamma; settings: 0.6 µM 14-3-3 protein, 25 mM MES pH 6.5, 5 mM MgCl2, 5 mM CaCl2, 25°C, Kd from duplicate measurements, aggr. = no successful experiment
T1 construct: His6; made in house; host or cells: Escherichia coli BL21 Rosetta (DE3)
T1 sequence (P61981 1-247): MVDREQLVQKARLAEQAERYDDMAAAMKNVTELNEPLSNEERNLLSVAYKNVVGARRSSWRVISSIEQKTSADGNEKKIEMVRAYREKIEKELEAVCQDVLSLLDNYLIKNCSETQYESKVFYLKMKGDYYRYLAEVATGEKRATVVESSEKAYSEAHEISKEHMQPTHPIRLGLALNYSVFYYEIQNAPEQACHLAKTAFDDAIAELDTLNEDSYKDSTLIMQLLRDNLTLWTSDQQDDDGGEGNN
Procedure: (§1) The binding of phosphorylated sirtuin peptides (Fig. 1 ▸) was analyzed using the change in the intrinsic fluorescence signal of the 14-3-3 proteins measured with label-free microscale thermophoresis using a Nanotemper Monolith NT.LabelFree or NT.115. A typical binding experiment using 0.6 µM 14-3-3 protein was performed in a modified MST buffer consisting of 25 mM MES pH 6.5, 5 mM MgCl2, 5 mM CaCl2. The measurements were performed at 25°C using a LED power of 10–40%. All measurements were performed at least in duplicate, and the results shown are representative measurements individually fitted using GraFit 7 (Erathicus Software, Horley, United Kingdom).
Figure 1 Classification and analysis of sirtuin PSSM results for potential 14-3-3 phosphoserine binding sites. Peptides with a gray background were not analyzed experimentally. Score is the overall PSSM score for the phosphorylation site; rank is the order within the 17 proposed sirtuin binding sites. Conserved residues in the 14-3-3 motifs are marked in green. Residues with restricted (proline) or very flexible (glycine) protein backbone or with a very large side chain (tryptophan) are marked in red. Amino acids with the same or similar hydrophobicity/size are shown in magenta. Kd values from duplicate measurements are colored green for Kd < 100 µM. Fields marked in red indicate no binding or no successful experiment. […]

14-3-3 isoform epsilon = target: T2, 14-3-3 isoform epsilon (Homo sapiens, UniProt P62258); assay: Label-free microscale thermophoresis (MST) binding, 14-3-3 epsilon; settings: label-free MST, 0.6 µM 14-3-3 protein, 25 mM MES pH 6.5, 5 mM MgCl2, 5 mM CaCl2, 25°C; Kd from duplicate measurements; read-out: Affinity estimates by MicroScale Thermophoresis, 14-3-3 isoform epsilon (Kd)
T2 construct: His6; made in house; host or cells: Escherichia coli BL21 Rosetta (DE3)
T2 sequence (P62258 1-255): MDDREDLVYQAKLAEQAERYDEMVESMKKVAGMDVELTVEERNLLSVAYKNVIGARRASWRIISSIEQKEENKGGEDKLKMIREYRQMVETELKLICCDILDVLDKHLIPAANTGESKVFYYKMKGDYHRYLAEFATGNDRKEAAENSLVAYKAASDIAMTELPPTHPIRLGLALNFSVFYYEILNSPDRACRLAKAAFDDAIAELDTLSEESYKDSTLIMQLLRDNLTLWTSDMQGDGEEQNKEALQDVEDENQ
Procedure: as §1
(§2) Figure 1 Classification and analysis of sirtuin PSSM results for potential 14-3-3 phosphoserine binding sites. Peptides with a gray background were not analyzed experimentally. Score is the overall PSSM score for the phosphorylation site; rank is the order within the 17 proposed sirtuin binding sites. Conserved residues in the 14-3-3 motifs are marked in green. Residues with restricted (proline) or very flexible (glycine) protein backbone or with a very large side chain (tryptophan) are marked in red. Amino acids with the same or similar hydrophobicity/size are shown in magenta. Kd values from duplicate measurements are colored green for Kd < 100 µM. Fields marked in red indicate no binding or no successful experiment. TEXT PRINTED IN THE PICTURE: Sirt1 S26: Affinity estimates by MicroScale Thermophoresis [μM], 14-3-3 isoform sigma: none | Sirt1 S670: Affinity estimates by MicroScale Thermophoresis [μM], 14-3-3 isoform gamma: aggr.; Affinity estimates by MicroScale Thermophoresis [μM], 14-3-3 isoform epsilon: > 183; Affinity estimates by MicroScale Thermophoresis [μM], 14-3-3 isoform theta: 93; Affinity estimates by MicroScale Thermophoresis [μM], 14-3-3 isoform sigma: 5 | Sirt3 S103: Affinity estimates by MicroScale Thermophoresis [μM], 14-3-3 isoform gamma: aggr.; Affinity estimates by MicroScale Thermophoresis [μM], 14-3-3 isoform epsilon: > 267; Affinity estimates by MicroScale Thermophoresis [μM], 14-3-3 isoform theta: 52; Affinity estimates by MicroScale Thermophoresis [μM], 14-3-3 isoform sigma: 10 | Sirt3 S103wt: Affinity estimates by MicroScale Thermophoresis [μM], 14-3-3 isoform gamma: aggr.; Affinity estimates by MicroScale Thermophoresis [μM], 14-3-3 isoform theta: none; Affinity estimates by MicroScale Thermophoresis [μM], 14-3-3 isoform sigma: none | Sirt3 S105: Affinity estimates by MicroScale Thermophoresis [μM], 14-3-3 isoform gamma: aggr.; Affinity estimates by MicroScale Thermophoresis [μM], 14-3-3 isoform epsilon: > 215; Affinity estimates by MicroScale Thermophoresis [μM], 14-3-3 isoform theta: 60; Affinity estimates by MicroScale Thermophoresis [μM], 14-3-3 isoform sigma: none | Sirt5 S168: Affinity estimates by MicroScale Thermophoresis [μM], 14-3-3 isoform epsilon: aggr.; Affinity estimates by MicroScale Thermophoresis [μM], 14-3-3 isoform theta: aggr.; Affinity estimates by MicroScale Thermophoresis [μM], 14-3-3 isoform sigma: > 329 | Sirt6 T337: Affinity estimates by MicroScale Thermophoresis [μM], 14-3-3 isoform epsilon: > 420; Affinity estimates by MicroScale Thermophoresis [μM], 14-3-3 isoform sigma: 12 | Sirt6 S338: Affinity estimates by MicroScale Thermophoresis [μM], 14-3-3 isoform epsilon: 19; Affinity estimates by MicroScale Thermophoresis [μM], 14-3-3 isoform sigma: 24 | Sirt7 S136: Affinity estimates by MicroScale Thermophoresis [μM], 14-3-3 isoform epsilon: none; Affinity estimates by MicroScale Thermophoresis [μM], 14-3-3 isoform theta: 30; Affinity estimates by MicroScale Thermophoresis [μM], 14-3-3 isoform sigma: 49

14-3-3 isoform theta = target: T3, 14-3-3 isoform theta (Homo sapiens, UniProt P27348); assay: Label-free microscale thermophoresis (MST) binding, 14-3-3 theta; settings: label-free MST, 0.6 µM 14-3-3 protein, 25 mM MES pH 6.5, 5 mM MgCl2, 5 mM CaCl2, 25°C; Kd from duplicate measurements; read-out: Affinity estimates by MicroScale Thermophoresis, 14-3-3 isoform theta (Kd)
T3 construct: His6; made in house; host or cells: Escherichia coli BL21 Rosetta (DE3)
T3 sequence (P27348 1-245): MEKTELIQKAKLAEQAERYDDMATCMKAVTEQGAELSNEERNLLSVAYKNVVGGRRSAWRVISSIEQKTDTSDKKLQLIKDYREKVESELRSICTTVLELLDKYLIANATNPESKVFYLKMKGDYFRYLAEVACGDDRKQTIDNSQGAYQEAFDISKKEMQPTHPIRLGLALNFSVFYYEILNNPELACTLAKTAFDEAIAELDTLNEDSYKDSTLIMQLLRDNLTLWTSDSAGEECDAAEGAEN
Procedure: as §1, §2

- Affinity estimates by MicroScale Thermophoresis, 14-3-3 isoform gamma (Kd) (14-3-3 isoform gamma): aggr.
- Kd (14-3-3 isoform epsilon): > 183 µM
- Kd (14-3-3 isoform theta): 93 µM
Compound: CC(C)C[C@H](NC(=O)[C@@H](N)C(C)C)C(=O)N[C@@H](CO)C(=O)N[C@@H](CO)C(=O)N[C@@H](CO)C(=O)N[C@@H](COP(=O)(O)O)C(=O)N[C@@H](CS)C(=O)NCC(=O)N[C@@H](CO)C(=O)N[C@@H](CC(N)=O)C(=O)N[C@@H](CO)C(=O)O [Sirt1^pS670] (H-VLSSS[pS]CGSNS-OH)
